Laboratory results as given in patent US5091403A, “Sulfinyl imidazole derivatives and antiulcer agents containing the same” (Nippon Chemiphar Co., Ltd., priority 1989, dated 1992).
Like-named read-outs stand apart in the source and are kept apart here.

Legend:
H^+ +K^+ ATPase [1] = biological target: T1, H^+ +K^+ ATPase (Oryctolagus cuniculus, UniProt P27112); test: H^+ +K^+ ATPase Inhibitory Effects (Test 1); type: biochemical, rabbit; conditions: 2 × 10^-4 M test compound; incubation at pH 6.0, 25 min, room temperature; read-out: value of H^+ +K^+ ATPase inhibitory action
T1 construct: a rabbit gastric mucosa were isolated; from tissue; host or cells: rabbit gastric mucosa; vesicles from a discontinuous Ficoll gradient
T1 sequence (P27112 whole entry): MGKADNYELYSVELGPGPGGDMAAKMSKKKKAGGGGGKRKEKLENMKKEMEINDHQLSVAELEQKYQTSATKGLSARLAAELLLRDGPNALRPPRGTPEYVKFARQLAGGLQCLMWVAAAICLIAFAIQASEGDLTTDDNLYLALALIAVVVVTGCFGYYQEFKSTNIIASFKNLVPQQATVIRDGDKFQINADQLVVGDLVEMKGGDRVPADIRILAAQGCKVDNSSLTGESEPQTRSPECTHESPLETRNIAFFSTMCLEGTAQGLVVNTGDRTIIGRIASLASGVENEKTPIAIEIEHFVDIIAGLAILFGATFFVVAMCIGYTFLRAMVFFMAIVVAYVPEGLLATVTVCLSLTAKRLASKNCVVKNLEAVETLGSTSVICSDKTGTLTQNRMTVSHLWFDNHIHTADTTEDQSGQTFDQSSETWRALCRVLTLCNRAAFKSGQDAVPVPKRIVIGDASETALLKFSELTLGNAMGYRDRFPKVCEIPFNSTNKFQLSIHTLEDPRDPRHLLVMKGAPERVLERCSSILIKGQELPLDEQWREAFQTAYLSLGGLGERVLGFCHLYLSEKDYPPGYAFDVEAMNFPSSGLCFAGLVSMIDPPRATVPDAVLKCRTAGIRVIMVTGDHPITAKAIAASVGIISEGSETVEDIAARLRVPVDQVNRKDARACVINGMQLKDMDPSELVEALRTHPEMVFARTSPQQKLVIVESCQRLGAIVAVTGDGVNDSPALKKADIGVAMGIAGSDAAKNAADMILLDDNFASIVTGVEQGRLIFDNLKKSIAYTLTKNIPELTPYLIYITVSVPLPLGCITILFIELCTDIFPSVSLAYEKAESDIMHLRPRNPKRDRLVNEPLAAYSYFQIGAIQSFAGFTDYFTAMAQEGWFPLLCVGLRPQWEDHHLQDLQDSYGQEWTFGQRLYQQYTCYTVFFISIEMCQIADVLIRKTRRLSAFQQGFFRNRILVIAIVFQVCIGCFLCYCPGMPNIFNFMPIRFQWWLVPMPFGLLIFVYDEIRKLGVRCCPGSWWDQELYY
T1 sequence (P18597 whole entry partner): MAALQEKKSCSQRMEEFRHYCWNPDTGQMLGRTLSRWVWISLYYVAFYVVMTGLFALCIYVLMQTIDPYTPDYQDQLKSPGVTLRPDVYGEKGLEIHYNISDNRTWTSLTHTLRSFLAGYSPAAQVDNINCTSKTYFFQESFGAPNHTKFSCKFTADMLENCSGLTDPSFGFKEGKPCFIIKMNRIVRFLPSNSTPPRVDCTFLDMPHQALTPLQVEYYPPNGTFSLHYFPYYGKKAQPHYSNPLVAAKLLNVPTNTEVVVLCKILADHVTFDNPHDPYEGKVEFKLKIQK
Experimental: Following the method of Forte et al (J. Applied Physiol., 32, 714.717 (1972)), a rabbit gastric mucosa were isolated. A vesicle containing H^+ +K^+ ATPase was prepared by centrifuging the cells in Ficoll of discontinuous density gradient according to G. Saccomani et al (Biochim. Biophys. Acta, 465. 311-330 (1977)). After the enzyme was incubated at room temperature for 25 min. in 0.5 ml of a solution which contained 5 mM of an imidazole buffer (pH 6.0) and 2 × 10^-4 M of 2-[2-(2-methoxyethylamino)benzylsulfinyl] imidazole (the compound of Example 1; the test compound), the mixture was heated to 37° C. The mixture was then allowed to stand for further 5 min. To the mixture was added 0.5 ml of a solution which contained 4 mM of magnesium chloride, 80 mM of an imidazole buffer (pH 7.4), 20 mM of potassium chloride and 4 mM of ATP. […] The inorganic phosphorus liberated was quantitatively determined by the method proposed by Taussky and Shorr (J. Biol. Chem., 202, 675-685 (1953)).
(§1) The above procedure was repeated except for not using potassium chloride to determine […] in the absence of potassium chloride. The desired K^+ -dependent ATPase activity was calculated by subtracting the ATPase activity value determined in the absence of KCl from the ATPase activity value determined in the presence of KCl.

H^+ +K^+ ATPase [2] = biological target: T1, H^+ +K^+ ATPase; test: H^+ +K^+ ATPase Inhibitory Effects (Test 2); type: biochemical, rabbit; conditions: read-out: H^+ + K^+ ATPase inhibitory action IC50
Experimental: Following the method of Forte et al (J. Applied Physiol., 32, 714.717 (1972)), a rabbit gastric mucosa were isolated. A vesicle containing H^+ +K^+ ATPase was prepared by centrifuging the cells in Ficoll of discontinuous density gradient according to G. Saccomani et al (Biochim. Biophys. Acta, 465. 311-330 (1977)). After the enzyme was incubated at room temperature for 25 min. in 0.5 ml of a solution which contained 5 mM of an imidazole buffer (pH 6.0) and 2 × 10^-4 M of 2-[2-(2-methoxyethylamino)benzylsulfinyl] imidazole (the compound of Example 1; the test compound), the mixture was heated to 37° C. The mixture was then allowed to stand for further 5 min. To the mixture was added 0.5 ml of a solution which contained 4 mM of magnesium chloride, 80 mM of an imidazole buffer (pH 7.4), 20 mM of potassium chloride and 4 mM of ATP. The resulting mixture was reacted at 37° C. for 15 min. and 1 ml of 24 % trichloroacetic acid was then added to terminate the reaction. The inorganic phosphorus liberated was quantitatively determined by the method proposed by Taussky and Shorr (J. Biol. Chem., 202, 675-685 (1953)).
as §1
the enzyme was prepared in the same manner described in the above Test 1. After the enzyme was incubated at room temperature for 25 min. in 0.5 ml of a solution which contained 5 mM of an imidazole buffer (pH 6.0 or pH 7.4) and various concentrations of test compound, the mixture was heated to 37° C. The mixture was then allowed to stand for further 5 min. The value of H^+ +K^+ ATPase inhibitory action of each test compound was determined int he same manner described in the above Test 1.

[3] = tested on: secretion of gastric acid; test: Inhibitory action against the secretion of gastric acid (Test I), pylorus-ligated rats; type: in vivo, rat (male Donryu); conditions: intraduodenally, 4 hours, vs vehicle control
Experimental: Male Donryu rats having a body weight of 200 to 250 g were fasted (while allowing free access to water) for 24 hrs. in accordance with the conventional method [Shay, H. et al, Gastroenterology, 5, 43.61 (1945)]. Under ether anesthesia the pylorus was ligated and 2-[2-(2-methoxyethylamino)benzylsulfinyl] imidazole (the compound of Example 1; the test compound) was administered intraduodenally. Four hours later, each rat was killed and the stomach was removed to collect the gastric juice. The inhibitory action was determined by comparing the acid output which was determined by titration to pH 7.0 with 0.1.N sodium hydroxide by means of an automatic titrator, with the corresponding value of a control rat prepared in the same manner except that a vehicle alone was administered.

[4] = tested on: secretion of gastric acid; test: Inhibitory action against the secretion of gastric acid (Test II), Heidenhain pouch dogs, histamine, intravenous; type: in vivo, dog (male beagle); conditions: 3 mg/kg, intravenously, one hour after initiation of histamine; 30 min post-drug vs pre-drug
Experimental: (§2) Heidenhain pouch dogs produced from male beagle dogs were fasted. To the dogs were then administered intra venously histamine hydrochloride (gastric juice secretion inducing agent) continuously at a dose of 160 μg/kg/hr. The gastric juice was collected at an interval of 15 min. to measure the amount of gastric juice and acid output to determine an acid secretion amount (mEq/15 min).
The test compound was intravenously administered to the dogs at one hour after the initiation of histamine ad ministration.
The inhibitory action was determined by comparing the acid secretion amount between pre-drug value (just before drug administration) and post-drug value (30 min. after drug administration).

[5] = tested on: secretion of gastric acid; test: Inhibitory action against the secretion of gastric acid (Test II, other experiment), Heidenhain pouch dogs, histamine, oral; type: in vivo, dog (male beagle); conditions: orally, 2 hours before initiation of histamine, vs vehicle control dog
Experimental: as §2
At the other experiment, the test compounds mere administrated orally 2 hours before the initiation of histamine administration, and the inhibitory action was determined by comparing the acid secretion amount wit the corresponding amount of a control dog prepared in the same manner except that a vehicle alone was administered.

Acute toxicity test = type: in vivo, rat (male SD); conditions: orally, observed for 2 days
Excerpt: Male SD rats having a body weight of about 190 g were orally administered with compound of Example 8. The rats were then observed for 2 days.

Row | inhibition at 200 µM (H^+ +K^+ ATPase [1]) | IC50 (H^+ +K^+ ATPase [2]; pH 6.0) | IC50 (H^+ +K^+ ATPase [2]; pH 7.4) | SMILES | inhibitory action (acid output) ([3]; 10 mg/kg) | inhibitory action (acid output) ([3]; 30 mg/kg) | Suppressive action (acid secretion amount) [4] | Suppressive action (acid secretion amount) [5] | MLD (Acute toxicity test)
1 | 73.1% | 43 µM | 180 µM | COCCNc1ccccc1C[S+]([O-])c1ncc[nH]1 (stereo not shown) [Example 1, 2-[2-(2-methoxyethylamino)benzylsulfinyl]imidazole] | 75.9% | 94.5% | 89% |  | 
2 |  | 46 µM | 190 µM | CC(C)OCCNc1ccccc1C[S+]([O-])c1ncc[nH]1 (stereo not shown) [Example 2, 2-[2-(2-isopropoxyethylamino)benzylsulfinyl]imidazole] |  |  | 97% |  | 
3 |  | 25 µM | > 300 µM | COCCNc1ccc(C)cc1C[S+]([O-])c1ncc[nH]1 (stereo not shown) [Example 3, 2-[2-(2-methoxyethylamino)-5-methylbenzylsulfinyl]imidazole] |  |  | 85% | 100% | 
4 |  | 4.4 µM | 26 µM | COCCNc1cccc(C)c1C[S+]([O-])c1ncc[nH]1 (stereo not shown) [Example 4, 2-[2-(2-methoxyethylamino)-6-methylbenzylsulfinyl]imidazole] |  |  | 89% |  | 
5 |  | 22 µM | 53 µM | CCOCCNc1ccccc1C[S+]([O-])c1ncc[nH]1 (stereo not shown) [Example 5, 2-[2-(2-ethoxyethylamino)benzylsulfinyl]imidazole] |  |  | 98% |  | 
6 |  | 13 µM | 60 µM | COCCCNc1ccccc1C[S+]([O-])c1ncc[nH]1 (stereo not shown) [Example 6, 2-[2-(3-methoxypropylamino)benzylsulfinyl]imidazole] |  |  | 92% |  | 
7 |  | 18 µM | 94 µM | CCOCCNc1ccc(C)cc1C[S+]([O-])c1ncc[nH]1 (stereo not shown) [Example 7, 2-[2-(2-ethoxyethylamino)-5-methylbenzylsulfinyl] imidazole] |  |  |  |  | 

Row | SMILES | inhibition at 200 µM (H^+ +K^+ ATPase [1]) | IC50 (H^+ +K^+ ATPase [2]; pH 6.0) | IC50 (H^+ +K^+ ATPase [2]; pH 7.4) | inhibitory action (acid output) ([3]; 10 mg/kg) | inhibitory action (acid output) ([3]; 30 mg/kg) | Suppressive action (acid secretion amount) [4] | Suppressive action (acid secretion amount) [5] | MLD (Acute toxicity test)
8 | COCCNc1cc(C)c(OC)c(C)c1C[S+]([O-])c1ncc[nH]1 (stereo not shown) [Example 8, 2-[4,6-dimethyl-5-methoxy-2-(2-methoxyethylamino)benzylsulfinyl]imidazole] |  | 0.46 µM | 11 µM |  |  |  | 100% | ≥ 1,000 mg/kg
